Data taken from patent publication US20110237495A1, “FUNCTIONAL METABOLOMICS COUPLED MICROFLUIDIC CHEMOTAXIS DEVICE AND IDENTIFICATION OF NOVEL CELL MEDIATORS” (The Brigham and Women's Hospital, Inc. Corporate Sponsored …, priority 2008, published 2011).
“Also recorded” adds a separate entry of the source.

Assays:
[1] = test system: leukocyte infiltration in lung tissues; assay: Hind-limb ischemia-reperfusion-induced second-organ (lung) injury, lung MPO by ELISA; type: in vivo, mice; settings: for percent reduction of MPO found in lungs (FIG. 11), mean±SEM: 1 μg i.v. in vehicle, ischemia-reperfusion
Description: To identify the effects of the resolvins and protectins on inflammation resolution, ischemia-reperfusion induced second-organ injury experiments were designed and are illustrated in FIGS. 7A-D. Mice were anesthetized by intraperitoneal injection of pentobarbital (80 mg kg^−1, Nembutal sodium solution NDC 0074-3778-04). Hind-limb ischemia was initiated using tourniquets consisting of a rubber band placed on each hind limb as in ref.^35. Mice were subjected to hind limb ischemia for 1 h, after which the tourniquets were removed to initiate reflow-reperfusion. Resolvins, related compounds and analogs were each administered at 1 μg/mouse (i.e., DHA, RvD1, RvD1 methyl ester, 17-(R/S)-methyl-RvD1 methyl ester, RvE1, or 19-p-fluorophenoxy-RvE1 methyl ester) in vehicle (5 μl ethanol in 120 μl sterile saline) or vehicle alone. They were administered intravenously to the tail vein ˜5 min before the start of the reperfusion period. At the end of this reperfusion period (2 h), the mice were euthanized with an overdose of anesthetic and the lungs were quickly harvested, frozen in liquid nitrogen, and stored at −80° C. The right lungs were homogenized from individual mice and centrifuged, and the tissue levels of myeloperoxidase (MPO) (a leukocyte marker enzyme) in the resulting supernatants, for each experimental protocol, were determined using a mouse MPO enzyme-linked immunosorbent assay (Hycult biotechnology, Cell Sciences, Uden, The Netherlands).
Briefly, as illustrated in the time-course shown in FIG. 7A, hind-limb ischemia was induced in mice by creating tourniquets using a rubber band on each hind limb. After 1 h, the tourniquets were removed and reperfusion ensued. Test compounds (1 μg of DHA, RvD1, RvE1) in vehicle were administered intravenously 5 min before the start of the reperfusion period. At the end of the reperfusion period (2 h), lungs were collected and MPO concentrations were determined by ELISA. FIGS. 7B and C are representative images from histological analysis. FIG. 9B is a photomicrograph showing a hematoxylin/eosin-stained lung from ischemia/reperfusion second organ injury (control). […] Mean±SEM (n=3-5, control; n=12).
Ischemia/reperfusion is a well-appreciated pathophysiologic mechanism of organ injury and local tissue damage that can be initiated by excessively activated PMN. This system in the mouse, models the second organ injury observed in humans following tourniquet release of vessels in surgery involving, for example, extremities^41, 42. Remote or second organ injury can also occur when blood vessels are occluded, or during certain surgical procedures that create local ischemia and remote organ injury that has many features of rapid, acute inflammation and tissue damage^35. On release of the tourniquet occlusion, reflow is initiated and activated PMN rapidly infiltrate secondary organs, causing damage^35. Here, the inventors evaluated RvD1 in a remote organ injury system, i.e., hind-limb ischemia/reperfusion, to assess whether RvD1's ability to inhibit PMN migration, in vitro, in microchambers (FIGS. 8A-C, 9-11) can be predictive of their effect to reduce PMN mediated tissue and organ damage in vivo. […] The extent of lung tissue injury is associated with PMN activation and organ infiltration^35.

human PMN = assay: Microfluidic chemotaxis device: PMN chemotaxis in IL-8 gradient; type: cell-based; settings: 10 nM (DHA equimolar), PMN captured on P-selectin from a drop of whole blood, n=12
Excerpt: A new microvolume chemotaxis device was designed using polyethylene glycol (PEG) that allows testing the chemotactic function of neutrophils and their responses to these novel lipid mediators immediately after being separated from whole blood within the device. One exemplary embodiment of the device is illustrated in FIGS. 8A-C. In this embodiment, the microvolume chemotaxis device with microstructured valves was fabricated using “lab-on-chip” microfabrication technologies^36. Briefly, two silicon wafers were coated with a 50-μm-thick layer of SU8 photoresist (MicroChem, Newton, Mass.). After exposure to UV light through a mylar mask in a mask, aligner and development following manufacturer recommendations, 50 μm-tall features were produced on top of the silicon wafers. Subsequently, poly (dimethylsiloxane) (PDMS, Dow Corning, Midland, Mich.) was prepared by mixing two components in 10:1 ratio, as recommended by the manufacturer. […]
After assembly, different sections of the device were chemically modified for specific functionalities. […] The surface of the chemotaxis chamber, where neutrophils were captured and assessed for their chemotactic responses, were modified by physical adsorption of P-selectin (10 ng/mL for 30 minutes, R&D Systems, Minneapolis, Minn.) immediately before use. […]

[2] = Zymosan A-induced murine peritonitis: appearance of i.v. labeled omega-3 fatty acids in peritoneal exudates; type: in vivo, male FVB mice; settings: for time of maximum level in peritoneal exudate: 1 μg/mouse i.v. just before i.p. zymosan A, GC-MS; for exudate level at 48 h compared with 24 h: 1 μg/mouse i.v., p<0.05
Description: Male FVB mice were anesthetized with isoflurane (Hospira Inc, Lake Forest, Ill.). Both 1 μg d5-DHA (4Z,7Z,10Z,13Z,16Z,19Z-docosahexaenoic-21,21,22,22,22-d5 acid: Cayman Chemical, Ann Arbor, Mich.) and 1 μg d5-EPA (5Z,8Z,11Z,14Z,17Z-eicosapentaenoic-19,19′,20,20,20-d5 acid: Cayman Chemical, Ann Arbor, Mich.) in 100 μl of 2% ethanol (v/v) in saline or vehicle alone were administered by bolus tail vein injection. Approximately five minutes later, peritonitis was initiated with intraperitoneal administration of 1 mg of zymosan A (Sigma Aldrich, St. Louis, Mo.). At indicated time intervals, mice were euthanized with an overdose of isoflurane, and peritoneal exudates were collected by lavage with 5 ml of DPBS without either Ca^2+ or Mg^2+. Exudate cells and supernatants were separated by centrifugation (10 min, 1000 rpm, 4° C.), aliquots of supernatants were collected, and 4 volumes of cold acetone were added to precipitate proteins. Serum albumin and total protein levels were determined^32.
Briefly, FVB mice (6-8 wk) received d5-EPA and d5-DHA i.v. (1 μg/mouse of each) (FIG. 4D, top panel) just before i.p. challenge with zymosan A (1 mg/ml/mouse) (FIG. 4D, middle panel). Peritoneal exudates were collected at 0, 2, 4, 12, 24 and 48 h and taken to solid phase extraction. Eluate fractions were treated with diazomethane and taken to GC-MS. Results represent the mean±SEM from n=3, separate mice. Mass spectra of d5-EPA methyl ester and d5-DHA methyl ester. d5-EPA and d5-DHA were derivatized into methyl esters and submitted to GC-MS for analysis shown in FIGS. 4A-C.
For tracer experiments, mice were fasted overnight (˜18 h) before 500 nCi of [1-^14C]-DHA (docosahexaenoic acid 4,7,10,13,16,19-[1-^14C], American Radiolabeled Chemicals Inc, St. Louis, Mo.) was injected via the tail vein. At indicated time intervals, exudates were collected (vide supra) and the radioactivity was determined using a scintillation counter (Multi-purpose scintillation counter LS6500, Beckman Coulter, Fullerton, Calif.).
Upon collection of peritoneal exudates, 2 volumes of cold methanol and internal standard (500 ng/sample, trans-parinaric acid, Molecular Probe, Eugene, Oreg.) were added to exudates, which were stored at −20° C. for 1 hr. After centrifugation, samples were diluted and applied to C18 cartridge columns (Extract-Clean EV SPE, Alltech, Deerfield, Ill.). Lipids were extracted using hexane and methyl formate and each fraction was collected and its unesterified fatty acids converted to corresponding methyl ester using diazomethane treatment^34. The esters were suspended in hexane, and then injected in GC-MS. Electron-impact GC-MS was carried out using an HP 6890 GC system with HP5973 Mass Selective Detector (Hewlett-Packard) equipped with an HP-5MS capillary column (0.25 mm ID×30 m, 0.25 μm, Agilent Technologies Inc., Wilmington, Del.) operating at a mass range from m/z 70 to 800. The ionization voltage was 70 eV and the ion source temperature was 230° C. Chromatography was carried out using a column temperature maintained at 150° C. for 2 min and then programmed to increase 10° C./min up to 230° C., 5° C./min up to 280° C., and then maintained at 280° C. for 10 min. EPA and DHA were separated and the area beneath each chromatographic peak of their deuterium labels was obtained by integration using a Chemstation integrator Version D.02.00.275 (Agilent Technologies Inc). […] The inventors selected the ω-3 ion ((CH)3CH2(CH)2CD2CD3=113) for both d5-EPA (FIG. 4A) and d5-DHA (FIG. 4B) methyl ester and M^+(290) for methyl parinate (FIG. 4C). Identification was conducted by examining and retention times as in FIGS. 4A-C (d5-EPA-methyl ester: 11.7 min FIG. 4A, inset, methyl-parinarate; 13.1 min (FIG. 4C, and d5-DHA; 13.9 min, FIG. 4B, inset). Calibration curves were obtained for each: d5-EPA; y=0.0016x+0.0313 (r^2=0.9954, 50-500 ng/ml), d5-DHA; y=0.0015x-0.0524 (r^2=0.9809, 50-500 ng/ml). […]

time of maximum level in peritoneal exudate [2]	exudate level at 48 h compared with 24 h [2]	Compound	percent reduction of MPO found in lungs (FIG. 11), mean±SEM [1]	other results
2 h	significantly greater than at 24 h	[2H]C([2H])([2H])C([2H])([2H])/C=C\C/C=C\C/C=C\C/C=C\C/C=C\C/C=C\CCC(=O)O [d5-DHA, 4Z,7Z,10Z,13Z,16Z,19Z-docosahexaenoic-21,21,22,22,22-d5 acid]		
4 h	significantly greater than at 24 h	[2H]C([2H])([2H])C([2H])([2H])/C=C\C/C=C\C/C=C\C/C=C\C/C=C\CCCC(=O)O [d5-EPA, 5Z,8Z,11Z,14Z,17Z-eicosapentaenoic-19,19′,20,20,20-d5 acid]		

More lines, now with the values behind:

Compound	time of maximum level in peritoneal exudate [2]	exudate level at 48 h compared with 24 h [2]	percent reduction of MPO found in lungs (FIG. 11), mean±SEM [1]	other results
CC/C=C\CC(C)(O)/C=C/C=C\C=C\C=C\[C@@H](O)[C@@H](O)C/C=C\CCC(=O)OC (mixture of isomers) [17-(R/S)-methyl-RvD1-Me, 17-(R/S)-methyl-RvD1 carboxymethyl ester]			29.3 ±6.4%	
CC/C=C\C[C@H](O)/C=C/C=C\C=C\C=C\[C@@H](O)[C@@H](O)C/C=C\CCC(=O)O [RvD1, 7S,8R,17S-trihydroxy-4Z,9E,11E,13Z,15E,19Z-docosahexaenoic acid]				reduction of lung MPO concentration (FIG. 7D), mean±SEM ([1]; 1 μg i.v. 5 min before reperfusion, lungs collected after 2 h reperfusion): 47.5±2.4; reduction of leukocyte infiltration ([1]; 1 μg/mouse, ischemia/reperfusion injury): ~50%; effect on PMN migration (chemotaxis) in IL-8 gradient (human PMN): essentially completely stop PMN movements; also recorded: chemotaxis immediately ceased
CC/C=C\C[C@H](O)/C=C/C=C\C=C\C=C\[C@@H](O)[C@@H](O)C/C=C\CCC(=O)OC [RvD1-Me, RvD1 carboxymethyl ester]			22.9 ±6.8%	
CC/C=C\C/C=C\C/C=C\C/C=C\C/C=C\C/C=C\CCC(=O)O [^14C-DHA, docosahexaenoic acid 4,7,10,13,16,19-[1-^14C]]				time at which 14C label reached maximal levels in exudate ([2]; 500 nCi i.v., mice fasted overnight, scintillation counting): 1 h; effect on leukocyte trafficking (FACS analysis of exudates) ([2]; tracer levels i.v.): did not reduce leukocyte trafficking
